Assay results taken from patent US20260285853A1, “COMPOUNDS AND METHODS FOR MODULATING SPLICING” (REMIX THERAPEUTICS INC., priority 2023, published 2026).

Experiments:
Format in all cases: cell-based
MYB mRNA [1] = assay: Splicing RT-qPCR assay (THP), Table 2A; conditions: Table 2A (THP); for AC50: AJ mRNA increase, read-out: MYB AJ (increase in alternative junction mRNA, AC50); for IC50: CJ mRNA decrease, read-out: MYB CJ (decrease in canonical junction mRNA, IC50)
[2] = system: SH-SY5Y (human neuroblastoma) cells; assay: Cell viability, Cell Titer Glo 2.0 assay; conditions: read-out: Viability SHSY5Y.3 GI50
Procedure, shortened: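 SH-SY5Y cells were exposed to serially diluted compounds in IMDM with 10% FBS and 0.1% DMSO for 72 hours at 37° C., 5% CO2. Viability was measured by CellTiter-Glo 2.0 luminescence, with medium-only wells as blank.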

HTT mRNA [3] = assay: Splicing RT-qPCR assay, canonical (CJ) and alternative (AJ) junction mRNA, K562 cells; conditions: Homo sapiens, K562.3 cells, 24 hours; for AC50: read-out: HTT AJ (AC50, increase in AJ mRNA); for IC50: read-out: HTT CJ (IC50, decrease in CJ mRNA)
Description: (§1) Compounds described herein were used to modulate RNA transcript abundance in cells. The expression of a target mRNA was measured by detecting the formation of an exon-exon junction in the canonical transcript (CJ). A compound mediated exon-inclusion event was detected by observing an increase in formation of a new junction with an alternative exon (AJ). Real-time qPCR assays were used to detect these splicing switches and interrogate the potency of various compounds towards different target genes. A high-throughput real time quantitative PCR (RT-qPCR) assay was developed to measure these two isoforms of the mRNA (CJ and AJ) for exemplary genes, such as HTT, SMN2, and MYB, together with a control housekeeping gene, GAPDH or GUSB or PPIA, used for normalization. Briefly, the A673 or K562 cell line was treated with various compounds described herein (e.g., compounds of Formula (I)). After treatment, the levels of the HTT, MYB, or SMN2 mRNA targets were determined from each sample of cell lysate by cDNA synthesis followed by qPCR.
(§2) • Cells-to-CT 1-step kit: ThermoFisher A25602, Cells-to-CT lysis reagent: ThermoFisher 4391851C, TaqMan™ Fast Virus 1-Step Master Mix: ThermoFisher 4444436 • GAPDH: VIC-PL, ThermoFisher 4326317E (Assay: Hs99999905_m1)—used for K562/suspension cell lines • GUSB: VIC-PL, ThermoFisher 4326320E (Assay: Hs99999908_m1)—used for K562/suspension cell lines • PPIA: VIC-PL, ThermoFisher 4326316E (Assay: Hs99999904_m1)—used for A673/adherent cell lines
(§3) The K562 cell line was cultured in IMDM with 10% FBS. For K562, cells were diluted with full growth media and plated in either a 96-well plate (50,000 cells in 50 uL media per well) or a 384-well plate (8,000-40,000 cells in 45 uL media per well). An 11-point 3-fold serial dilution of the compounds were made in DMSO then diluted in media in an intermediate plate. Compound was transferred from the intermediate plate to the cell plate with the top dose at a final concentration of 10 uM in the well. Final DMSO concentration was kept at or below 0.25%. Final volume was 100 uL for 96-well plate and 50 uL for 384-well plate. The cell plate was then placed in an incubator at 37° C. with 5% CO2 for 24 hours.
(§4) The cells were then gently washed with 50 uL-100 uL cold PBS before proceeding to addition of lysis buffer. 30 uL-50 uL of room temperature lysis buffer with DNAse I (and optionally RNAsin) was added to each well. Cells were shaken/mixed thoroughly at room temperature for 5-10 minutes for lysis to take place and then 3 uL-5 uL of room temperature stop solution was added and wells were shaken/mixed again. After 2-5 minutes, the cell lysate plate was transferred to ice for RT-qPCR reaction setup. The lysates could also be frozen at −80° C. for later use.
(§5) In some cases, a direct lysis buffer was used. An appropriate volume of 3× lysis buffer (10 mM Tris, 150 mM NaCl, 1.5%-2.5% Igepal and 0.1-1 U/uL RNAsin, pH 7.4) was directly added to either K562 or A673 cells in media and mixed by pipetting 3 times. The plates were then incubated at room temperature with shaking/rocking for 20-50 minutes to allow for lysis to take place. After this time, the cell lysate plate was transferred to ice to set up for the RT-qPCR reactions. The lysates could also be frozen at −80° C. for later use.
(§6) To set up 10 uL RT-qPCR reactions, cell lysates were transferred to 384-well qPCR plates containing the master mix according to the table below. The plates were sealed, gently vortexed, and spun down before the run. The volumes were adjusted accordingly in some instances where the reaction was carried in 20 uL. The table below summarizes the components of the RT-qPCR reactions:
(§7) The RT-qPCR reaction was performed using a QuantStudio (ThermoFisher) under the following fast cycling conditions. All samples and standards were analyzed at least in duplicate. In some instances, bulk room temperature (RT) step of 5-10 minutes was completed for all plates before proceeding with qPCR. […]

MYB mRNA [4] = assay: as above; conditions: Homo sapiens, K562.3 cells, 24 hours; for AC50: read-out: MYB AJ (AC50, increase in AJ mRNA); for IC50: read-out: MYB CJ (IC50, decrease in CJ mRNA)
Description: as §1, §2, §3, §4, §5, §6, §7

HTT mRNA [5] = assay: Gene panel canonical junction qPCR assay, decrease in CJ mRNA, Table 3; conditions: decrease in canonical junction (CJ) mRNA, gene panel qPCR, Table 3
Procedure, shortened: (§8)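 Canonical exon-junction (CJ) transcript measured by 5′ nuclease RT-qPCR, normalized to GAPDH, GUSB or PPIA and to DMSO control (2^(−ΔΔCt)). A673 or K562 cells treated 24 h at 37° C with an 11-point 3-fold dilution series, top 10 uM, DMSO ≤0.25%. IC50 from 4-parameter logistic fit of percentage CJ decrease.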

SMN2 mRNA = assay: as above; conditions: decrease in canonical junction (CJ) mRNA, gene panel qPCR, Table 3
Procedure, shortened: as §8

MYB mRNA [6] = assay: as above; conditions: decrease in canonical junction (CJ) mRNA, gene panel qPCR, Table 3
Procedure, shortened: as §8

SMILES | IC50 (MYB mRNA [1]) | GI50 [2] | IC50 (HTT mRNA [3]) | IC50 (MYB mRNA [4]) | IC50 (HTT mRNA [5]) | IC50 (SMN2 mRNA) | IC50 (MYB mRNA [6]) | AC50 (MYB mRNA [1]) | AC50 (HTT mRNA [3]) | AC50 (MYB mRNA [4])
Cc1cn2cc(NC(=O)c3ccc(N4CC[C@@H](NCC5COC5)C4)c4cn(C)nc34)cc(F)c2n1 [Compound 104, N-(8-fluoro-2-methylimidazo[1,2-a]pyridin-6-yl)-2-methyl-4-[(3R)-3-[(oxetan-3-ylmethyl)amino]pyrrolidin-1-yl]indazole-7-carboxamide] | < 0.1 µM | 0.1 to 1 µM | 1 to 10 µM | < 0.1 µM | 1 to 10 µM | < 0.1 µM | < 0.1 µM | < 0.1 µM | 1 to 10 µM | < 0.1 µM
Cc1cn2cc(NC(=O)c3ccc(N4CC[C@H](NCC(C)(C)O)C4)c4cn(C)nc34)cc(F)c2n1 [Compound 132, N-(8-fluoro-2-methyl-imidazo[1,2-a]pyridin-6-yl)-4-[(3S)-3-[(2-hydroxy-2-methylpropyl)amino]-pyrrolidin-1-yl]-2-methyl-indazole-7-carboxamide] | 0.1 to 1 µM | 1 to 10 µM | 1 to 10 µM | 0.1 to 1 µM | 1 to 10 µM | < 0.1 µM | 0.1 to 1 µM | 0.1 to 1 µM | > 10 µM | 0.1 to 1 µM
CCNC1CCN(c2ccc(C(=O)Nc3cn4cc(C)nc4c(F)c3OC)c3[nH]ncc23)CC1 [Compound 170, 4-[4-(ethylamino)piperidin-1-yl]-N-(8-fluoro-7-methoxy-2-methylimidazo[1,2-a]pyridin-6-yl)-1H-indazole-7-carboxamide] |  | 0.1 to 1 µM | 1 to 10 µM | < 0.1 µM | 1 to 10 µM | < 0.1 µM | < 0.1 µM |  | 1 to 10 µM | 0.1 to 1 µM
CCNC1CCN(c2ccc(C(=O)Nc3cn4cc(C)nc4c(F)c3OC)c3[nH]ccc23)CC1 [Compound 171, 4-[4-(ethylamino)piperidin-1-yl]-N-(8-fluoro-7-methoxy-2-methylimidazo[1,2-a]pyridin-6-yl)-1H-indole-7-carboxamide] |  | > 10 µM | > 10 µM | 1 to 10 µM | > 10 µM | 1 to 10 µM | 1 to 10 µM |  | > 10 µM | > 10 µM
Cc1cn2cc(C(=O)Nc3ccc(N4C[C@@H](C)N[C@@H](C)C4)c4cn[nH]c34)cc(F)c2n1 [Compound 215, N-[4-[(3R,5S)-3,5-dimethylpiperazin-1-yl]-1H-indazol-7-yl]-8-fluoro-2-methyl-imidazo[1,2-a]pyridine-6-carboxamide] |  | > 10 µM | > 10 µM | > 10 µM | > 10 µM | 1 to 10 µM | > 10 µM |  | > 10 µM | > 10 µM

The next lines start with results.

IC50 (MYB mRNA [1]) | GI50 [2] | IC50 (HTT mRNA [3]) | IC50 (MYB mRNA [4]) | IC50 (HTT mRNA [5]) | IC50 (SMN2 mRNA) | IC50 (MYB mRNA [6]) | SMILES | AC50 (MYB mRNA [1]) | AC50 (HTT mRNA [3]) | AC50 (MYB mRNA [4])
 | > 10 µM | > 10 µM | > 10 µM | > 10 µM | 1 to 10 µM | > 10 µM | CCNC1CCN(c2ccc(C(=O)Nc3cc(F)c4nc(C)cn4c3)c3[nH]ccc23)CC1 [Compound 172, 4-[4-(ethylamino)piperidin-1-yl]-N-(8-fluoro-2-methylimidazo[1,2-a]pyridin-6-yl)-1H-indole-7-carboxamide] |  | > 10 µM | 1 to 10 µM
 | 0.1 to 1 µM | 0.1 to 1 µM | < 0.1 µM | 0.1 to 1 µM | < 0.1 µM | < 0.1 µM | COc1c(NC(=O)c2ccc(N3CCNCC3)c3cn[nH]c23)cn2cc(C)nc2c1F [Compound 211, N-(8-fluoro-7-methoxy-2-methylimidazo[1,2-a]pyridin-6-yl)-4-(piperazin-1-yl)-1H-indazole-7-carboxamide] |  | 0.1 to 1 µM | < 0.1 µM
 | > 10 µM | 1 to 10 µM | > 10 µM | 1 to 10 µM | > 10 µM | > 10 µM | Cc1cn2cc(C(=O)Nc3ccc(N4CCNCC4)c4cn[nH]c34)cc(F)c2n1 [Compound 214, 8-fluoro-2-methyl-N-(4-piperazin-1-yl-1H-indazol-7-yl) imidazo[1,2-a]pyridine-6-carboxamide] |  | > 10 µM | > 10 µM
 | > 10 µM | > 10 µM | > 10 µM | > 10 µM | 1 to 10 µM | > 10 µM | Cc1cn2cc(NC(=O)c3c(F)cc(N4CCNCC4)c4c3CN(C)C4)cc(F)c2n1 [Compound 230, 5-fluoro-N-(8-fluoro-2-methyl-imidazo[1,2-a]pyridin-6-yl)-2-methyl-7-piperazin-1-yl-isoindoline-4-carboxamide] |  | > 10 µM | > 10 µM
 | 1 to 10 µM | > 10 µM | 0.1 to 1 µM | > 10 µM | < 0.1 µM | 0.1 to 1 µM | CCNC1CCN(c2ccc(C(=O)Nc3cc(F)c4nc(C)cn4c3)c3[nH]ncc23)CC1 [Compound 266, 4-[4-(ethylamino)piperidin-1-yl]-N-(8-fluoro-2-methyl-imidazo[1,2-a]pyridin-6-yl)-1H-indazole-7-carboxamide] |  | > 10 µM | 0.1 to 1 µM
